The values below come from US8658697B2 (priority 2004, dated 2014).

For one data set, the system named is Junin virus. The format is cell-based. The following applies: read-out: Junin (Plaque reduction) EC50.
In a further data set the test system is Machupo virus. The format is cell-based. As to conditions: read-out: Machupo (Plaque reduction) EC50.
The test system of data set [1] is Tacaribe virus. Further details: species or system BALB/c mice. The following applies: mouse, in vivo.
Data set [2] concerns S. typhimurium tester strains TA7007, TA7006 and TA98.
The subject of data set [3] is ST-336 drug resistant Tacaribe virus variants (DR#1-4). The format is cell-based.
For data set [4] the following is noted: in vivo, 10 mg/kg.
The next data set concerns Guanarito virus. The format is cell-based. The following applies: read-out: Guanarito (Plaque reduction) EC50.
In data set [5] the test system is Tacaribe virus. The format is cell-based. As to conditions: for EC50: read-out: Tacaribe (CPE) EC50.
In data set [6] the test system is Tacaribe virus. The format is cell-based. The following applies: read-out: Tacaribe (Plaque reduction) EC50.
The conditions of data set [7]: mouse, in vivo, ip, 100 mg/kg/day.
For data set [8] the following is noted: in vivo.
In a further data set the test system is Candid-1 vaccine virus. The format is cell-based, Junin virus (vaccine strain). The following applies: read-out: Candid1 (CPE) EC50.
The test system of the next data set is vaccinia virus. It is filed as cell-based. The following applies: read-out: Vaccinia (CPE) EC50.
Another data set concerns CMV. It is filed as cell-based, cytomegalovirus. As to conditions: read-out: CMV (Elisa) EC50.
A further data set deals with Lassa virus. The format is cell-based. The following applies: read-out: Lassa (plaque reduction) EC50.
The next data set deals with Rotavirus. It is filed as cell-based. As to conditions: read-out: Rotavirus (CPE) EC50.
A further data set has as its system Ebola virus. It is filed as cell-based. As to conditions: read-out: Ebola (CPE) EC50.
The subject of the next data set is LCMV. It is filed as cell-based, lymphocytic choriomeningitis virus. As to conditions: read-out: LCMV (Elisa) EC50.
For data set [9], the system named is intact Tacaribe virion. The format is binding, Tacaribe virus.
The conditions of data set [10]: in vivo. The source holds these as a separate data set.
A further data set concerns HSV-1. The format is cell-based, herpes simplex virus 1. The following applies: read-out: HSV-1 (CPE) EC50.
Data set [11] has as its system Tacaribe virus. The format is cell-based.
A further data set deals with Amapari virus. It is filed as cell-based. The following applies: read-out: Amapari (CPE) EC50.
Data set [12] relates to intact Tacaribe virion. It is filed as binding, Tacaribe virus. This is another data set of the same source.
The next data set deals with RSV-A. It is filed as cell-based, Respiratory syncytial virus. The following applies: read-out: RSV-A (CPE) EC50.
The next data set concerns SARS-CoV. The format is cell-based. As to conditions: read-out: SARS (CPE) EC50.

Read-outs that look alike come from different tables or passages of the source.

In the case of `CC(NC(=O)NNS(=O)(=O)c1ccc(OC(F)F)cc1)(C(F)(F)F)C(F)(F)F` [ST-294, N-2-(1,1,1,3,3,3-hexafluoro-1-methylpropyl)-2-[(4-difluoromethoxyphenyl)sulfonyl]hydrazine-1-carboxamide], the half-maximal effective concentration (EC50) in the data set with Junin virus amounted to 300 nM; in the data set on Machupo virus, 300 nM; in the data set on Guanarito virus, 1000 nM; in the data set on Tacaribe virus [5], 120 nM; in the data set on Tacaribe virus [6], 100 nM. Besides, the “efficacy (survival, delay in death)” value with Tacaribe virus [1] is listed as “showed efficacy”. The “Genotoxicity (Ames test)” value in [2] was “negative”. For the same compound, the “susceptibility of drug resistant Tacaribe mutants (DR#1-4)” value in [3] is on record as “cross-resistance”. For the same compound, the “PK (newborn mouse/IP) Cmax” value in data set [4] was found to be 2910 ng/mL. Besides, the “PK (newborn mouse/IP) ½ life” value in data set [4] is 3 h. The “in vitro antiviral concentration required to inhibit Tacaribe virus CPE (EC50)” value with Tacaribe virus [5] is 0.066 µg/mL. The tolerability entry in data set [7] was “well tolerated”. Besides, the CC50 in the data set with Vero cells is over 50000 nM. Besides, the “PK (rat/oral) ½ life” value in [8] was found to be 2 h. For the same compound, in data set [8] (rat, po), the “Cmax (serum levels)” value was 6670 ng/mL.

Regarding `CCC(NC(=O)NNS(=O)(=O)c1ccc(C)cc1)(C(F)(F)F)C(F)(F)F` [ST-336], the half-maximal effective concentration (EC50) in the data set with Candid-1 vaccine virus is 62 nM; in the data set with Junin virus it was 150 nM; in the data set on Machupo virus, 150 nM; in the data set with vaccinia virus it was over 20000 nM; in the data set on CMV, over 20000 nM; in the data set on Lassa virus, over 20000 nM. Further, the EC50 in the data set with Rotavirus is over 20000 nM; in the data set on Guanarito virus, 300 nM; in the data set on Ebola virus it was over 20000 nM; in the data set with Tacaribe virus [5], 55 nM; in the data set with LCMV, over 20000 nM; in the data set on HSV-1, over 20000 nM. In addition, the EC50 is over 20000 nM in the data set with Amapari virus, 100 nM with Tacaribe virus [6], over 20000 nM in the data set on RSV-A and over 20000 nM in the data set with SARS-CoV. In addition, in data set [3], the “growth of ST-336 DR isolates in the presence of compound” value is listed as “unaffected”. Moreover, in the data set on Tacaribe virus [5] (read-out: Tacaribe (CPE) EC90), the EC90 was 125 nM. Also, the “binding to intact virions (dialysis)” value in the data set on intact Tacaribe virion [9] is reported as “binds intact virions with a very slow dissociation constant”. For the same compound, the “pharmacokinetic (PK) properties in rodents” value in [10] is on record as “poor pharmacokinetic (PK) properties”. The “effect on Tacaribe virus yield” value with Tacaribe virus [11] is “no effect on virus yield”. Further, in the data set with Tacaribe virus [11], the “effect on Tacaribe virus yield by time of addition” value is “exerted its inhibitory effect only at the very early stage in the virus life cycle”. Besides, the “binding to intact virus (serial dilution)” value with intact Tacaribe virion [12] is “binds with at least a slow Koff to intact protein present on Tacaribe virus”.

For orientation: EC50 means the concentration at which the effect is half-maximal. Broadly, the CC50 is the concentration at which the toxic effect on the cells reaches its halfway point. Low readings indicate greater toxicity to the cells, high ones lower toxicity to the cells. Broadly, the EC90 is the point of the concentration-response curve where the effect stands at 90%.
